Measured values taken from ChEMBL document CHEMBL3875183, “Structure guided design of a series of selective pyrrolopyrimidinone MARK inhibitors” (Bioorg Med Chem Lett, 2017).

Key:
[1] = test system: MDR1 (human MDR1 or rat MDR1a); assay: Apparent permeability of the compound in pig LLC-PK1 cells expressing human MDR1 or rat MDR1a; assay type: ADME, cell-based, Sus scrofa
[2] = Lipophilicity, logD of the compound; assay type: physicochemical; conditions: octanol/water
[3] = Half life in rat liver microsomes; assay type: ADME
[4] = Half life in human liver microsomes; assay type: ADME
[5] = Clearance in rat plasma; assay type: ADME, cell-free
[6] = Volume of distribution in rat; assay type: ADME; conditions: in vivo
[7] = Half life in rat; assay type: ADME; conditions: in vivo
[8] = Clearance in dog plasma; assay type: ADME, cell-free, Canis lupus familiaris
[9] = Volume of distribution in dog; assay type: ADME, Canis lupus familiaris; conditions: in vivo
[10] = Half life in dog; assay type: ADME, Canis lupus familiaris; conditions: in vivo

Row | Papp [1] | logD [2] | half-life [3] | half-life [4] | clearance [5] | Vd [6] | half-life [7] | clearance [8] | Vd [9] | half-life [10] | Compound
1 | 12 ×10⁻⁶ cm/s |  |  |  |  |  |  |  |  |  | CC1(C)C(=O)N(C2CCCCC2)c2nc(Nc3ccccc3)ncc21
2 |  | 2.92 | 9 min | 10 min | 341 mL/min/kg | 16.2 L/kg | 48 min | 68 mL/min/kg | 4 L/kg | 48 min | CC1(C)C(=O)N([C@H]2CCc3c(O)cccc32)c2nc(Nc3ccccc3)ncc21
